Here are results for 23 compounds from ChEMBL document CHEMBL1151594, “Aromatic guanyl hydrazones: Synthesis, structural studies and in vitro activity against Trypanosoma cruzi” (1995).

Holding throughout (type): functional
Assay [1] has as its system Trypanosoma cruzi. The assay can be described thus: In vitro inhibitory activity against trypomastigote form of Trypanosoma Cruzi. The settings on record: read-out: ID50 (the source's name).
The species entered for assay [2] is Mus musculus. The assay is described as follows: Effect on lysis of erythrocytes after 24 hr at 4 degree centigrade; Value given as 1200-1400.
Assay [3] is filed under the species Mus musculus. The assay can be described thus: Effect on lysis of erythrocytes after 24 hr at 4 degree centigrade; Value given as 75-100.
Assay [4] is filed under the species Mus musculus. The assay is described as follows: Effect on lysis of erythrocytes after 24 hr at 4 degree centigrade; Value given as 40-50.
The species entered for assay [5] is Mus musculus. The assay is described as follows: Effect on lysis of erythrocytes after 24 hr at 4 degree centigrade; Value given as 250-300.
For assay [6], the species on record is Mus musculus. The assay can be described thus: Effect on lysis of erythrocytes after 24 hr at 4 degree centigrade; Value given as 700-1000.
The species named for assay [7] is Mus musculus. The assay is described as follows: Effect on lysis of erythrocytes after 24 hr at 4 degree centigrade; Value given as 100-150.
The species entered for assay [8] is Mus musculus. The assay can be described thus: Effect on lysis of erythrocytes after 24 hr at 4 degree Centigrade.
For assay [9], the species on record is Mus musculus. The assay can be described thus: Effect on lysis of erythrocytes after 24 hr at 4 degree centigrade; Value given as 300-400.
Assay [10] is filed under the species Mus musculus. The assay can be described thus: Effect on lysis of erythrocytes after 24 hr at 4 degree centigrade; Value given as 150-200.
Assay [11] is filed under the species Mus musculus. The assay can be described thus: Effect on lysis of erythrocytes after 24 hr at 4 degree centigrade; Value given as 500-700.
For assay [12], the species on record is Mus musculus. The assay is described as follows: Effect on lysis of erythrocytes after 24 hr at 4 degree centigrade; Value given as 50-75.
Assay [13] is filed under the species Mus musculus. The assay can be described thus: Effect on lysis of erythrocytes after 24 hr at 4 degree centigrade; Value given as 500-600.
For assay [14], the species on record is Mus musculus. The assay is described as follows: Effect on lysis of erythrocytes after 24 hr at 4 degree centigrade; Value given as 400-500.

Regarding `Cl.N=C(N)N/N=C/c1ccc(C(=O)O)cc1`, the IC50 in assay [1] turned out to be 573 µM. In [2], this compound gave a Total lysis of 1200 µM.

Consider `COc1cc(/C=N/NC(=N)N)ccc1O`, for which the IC50 in assay [1] is more than 4800 µM.

Compound `COc1cccc(/C=N/NC(=N)N)c1OC.Cl` yielded a Total lysis in assay [3] of 75 µM.

On to `Cl.N=C(N)N/N=C/c1cc2c(cc1[N+](=O)[O-])OCO2`, for which the IC50 in assay [1] is 17.1 µM. The compound also registered a Total lysis in [4] of 40 µM.

In the case of `Cc1ccc(/C=N/NC(=N)N)cc1.Cl`, the IC50 in assay [1] was 103 µM. The Total lysis in assay [5] came out at 250 µM.

Compound `Cl.N=C(N)N/N=C/c1ccc2c(c1)OCO2` returned a Total lysis in assay [6] of 700 µM.

`COc1ccc(/C=N/NC(=N)N)c(OC)c1.Cl`: the IC50 in [1] came out at 33.8 µM. Also, the Total lysis in [7] was 100 µM.

In the case of `CN(C)c1ccc(C(=C2C=CC(=[N+](C)C)C=C2)c2ccc(N(C)C)cc2)cc1` [GENTIAN VIOLET], the IC50 in assay [1] is 536 µM.

For `Cl.N=C(N)N/N=C/c1cccc([N+](=O)[O-])c1O`, the IC50 in assay [1] amounted to 876 µM. Also, the Total lysis in assay [8] was more than 1400 µM.

As to `Cl.N=C(N)N/N=C/c1ccccc1O`, in [1], the IC50 is 166 µM. The Total lysis in [9] was 300 µM.

With `Cl.N=C(N)N/N=C/c1ccccc1[N+](=O)[O-]`, the IC50 in assay [1] is 87.5 µM. In assay [10], this compound registered a Total lysis of 150 µM.

On to `Cl.N=C(N)N/N=C/c1cccc([N+](=O)[O-])c1`, for which the IC50 in assay [1] was 183 µM. This compound also registered a Total lysis in assay [11] of 500 µM.

Take `COc1ccc(OC)c(/C=N/NC(=N)N)c1.Cl`: the IC50 in assay [1] turned out to be 41.4 µM. Moreover, the Total lysis in assay [10] is 150 µM.

`Cl.N=C(N)N/N=C/c1cc2c(cc1Br)OCO2` registered a Total lysis in assay [12] of 50 µM.

As for `CN(C)c1ccc(/C=N/NC(=N)N)cc1.Cl`, the IC50 in [1] worked out at 202 µM. Moreover, the Total lysis in [13] worked out at 500 µM.

On to `Cl.N=C(N)N/N=C/c1ccccc1`, for which the Total lysis in [14] worked out at 400 µM.

Turning to `Cl.N=C(N)N/N=C/c1ccc([N+](=O)[O-])cc1`, the IC50 in [1] was found to be 55.9 µM. In [10], this compound had a Total lysis of 150 µM.

`Cl.N=C(N)N/N=C/c1ccc(Cl)cc1` displayed a Total lysis in assay [7] of 100 µM.

`COc1ccccc1/C=N/NC(=N)N.Cl`: the IC50 in assay [1] came out at 86.3 µM. The Total lysis in [10] worked out at 150 µM.

Turning to `Cl.N=C(N)N/N=C/c1ccccc1N`, the IC50 in assay [1] is 261 µM. This compound registered a Total lysis in assay [13] of 500 µM.

Consider `Cl.N=C(N)N/N=C/c1cc2c(cc1N)OCO2`, for which the IC50 in assay [1] stood at 221 µM. Moreover, the Total lysis in assay [13] was 500 µM.

Turning to `CCOc1ccccc1/C=N/NC(=N)N.Cl`, the IC50 in assay [1] was 34.7 µM. In [3], this compound registered a Total lysis of 75 µM.

With `CCOc1cccc(/C=N/NC(=N)N)c1O.Cl`, the IC50 in assay [1] was found to be 97.8 µM. For the same compound, in assay [10], the Total lysis was determined as 150 µM.
